Paper PMC6364417, “Kinase inhibitor library screening identifies synergistic drug combinations effective in sensitive and resistant melanoma cells” (Journal of Experimental & Clinical Cancer Research : CR, 2019)

Columns and labels:
Assay in all cases: Kinase inhibitor library screening, PrestoBlue cell viability, 1 or 10 μM, 72 h
[1] = test system: IGR37-GP cells (Dabrafenib-resistant); conditions: for Cell viability in kinase inhibitor library screening, IGR37 GP, 10μΜ / Cell viability in kinase inhibitor library screening, IGR37 GP, 1μΜ / cell viability (kinase inhibitor library screening): 72 h, IGR37 GP; for Cell viability in kinase inhibitor library screening, IGR37 GP, 1μΜ: in %
Procedure: (§1) After 72 h of treatment, cell viability was assessed using the PrestoBlue Cell Viability Reagent (ThermoFisher Scientific). Measurements were performed with the CLARIOstar Monochromator microplate reader (BMG Labtech).
(§2) Kinase inhibitor library screening. […] Each cell line was treated in its sensitive form (parental), and also as 2 resistant derivatives, which were made resistant to either Vemurafenib (XP) or Dabrafenib (GP). Drugs were added at 2 different concentrations, 1 and 10 μM, for 72 h and cell viability was assessed using the PrestoBlue Cell Viability assay. Results are depicted as % viability compared to untreated cells. Each cell line was analyzed at least in duplicate. […] (XLSX 95 kb)

[2] = test system: A375 cells (parental)
Procedure: as §1, §2

[3] = test system: 501Mel-XP cells (Vemurafenib-resistant); conditions: for Cell viability in kinase inhibitor library screening, 501Mel XP, 1μΜ / Cell viability in kinase inhibitor library screening, 501Mel XP, 10μΜ: in %
Procedure: as §1, §2

[4] = test system: IGR37 cells (parental)
Procedure: as §1, §2

[5] = test system: 501Mel-GP cells (Dabrafenib-resistant); conditions: for Cell viability in kinase inhibitor library screening, 501Mel GP, 1μΜ / Cell viability in kinase inhibitor library screening, 501Mel GP, 10μΜ / cell viability (kinase inhibitor library screening): 72 h, 501Mel GP; for Cell viability in kinase inhibitor library screening, 501Mel GP, 1μΜ / Cell viability in kinase inhibitor library screening, 501Mel GP, 10μΜ: in %
Procedure: as §1, §2

[6] = test system: A375-GP cells (Dabrafenib-resistant); conditions: for Cell viability in kinase inhibitor library screening, A375 GP, 1μΜ / Cell viability in kinase inhibitor library screening, A375 GP, 10μΜ / cell viability (kinase inhibitor library screening): 72 h, A375 GP
Procedure: as §1, §2

[7] = test system: A375-XP cells (Vemurafenib-resistant); conditions: for Cell viability in kinase inhibitor library screening, A375 XP, 1μΜ / Cell viability in kinase inhibitor library screening, A375 XP, 10μΜ / cell viability (kinase inhibitor library screening): 72 h, A375 XP
Procedure: as §1, §2

[8] = test system: IGR37-XP cells (Vemurafenib-resistant); conditions: for Cell viability in kinase inhibitor library screening, IGR37 XP, 10μΜ / Cell viability in kinase inhibitor library screening, IGR37 XP, 1μΜ / cell viability (kinase inhibitor library screening): 72 h, IGR37 XP; for Cell viability in kinase inhibitor library screening, IGR37 XP, 1μΜ: in %
Procedure: as §1, §2

[9] = test system: 501Mel cells (parental); conditions: 501Mel Parental, 72 h, in %
Procedure: as §1, §2

| SMILES | Cell viability in kinase inhibitor library screening, IGR37 GP, 10μΜ ([1]; 10μΜ) | Cell viability in kinase inhibitor library screening, IGR37 GP, 1μΜ ([1]; 1μΜ) | Cell viability in kinase inhibitor library screening, 501Mel Parental, 1μΜ [9] | Cell viability in kinase inhibitor library screening, 501Mel Parental, 10μΜ [9] | Cell viability in kinase inhibitor library screening, 501Mel XP, 1μΜ ([3]; 501Mel XP, 72 h) | Cell viability in kinase inhibitor library screening, 501Mel XP, 10μΜ ([3]; 501Mel XP, 10μΜ, 72 h) | Cell viability in kinase inhibitor library screening, 501Mel GP, 1μΜ ([5]; 1μΜ) | Cell viability in kinase inhibitor library screening, 501Mel GP, 10μΜ ([5]; 10μΜ) | Cell viability in kinase inhibitor library screening, A375 GP, 1μΜ ([6]; 1μΜ) | Cell viability in kinase inhibitor library screening, A375 GP, 10μΜ ([6]; 10μΜ) | Cell viability in kinase inhibitor library screening, A375 XP, 1μΜ ([7]; 1μΜ) | Cell viability in kinase inhibitor library screening, A375 XP, 10μΜ ([7]; 10μΜ) | Cell viability in kinase inhibitor library screening, IGR37 XP, 10μΜ ([8]; 10μΜ) | Cell viability in kinase inhibitor library screening, IGR37 XP, 1μΜ ([8]; 1μΜ) | Cell viability in kinase inhibitor library screening, IGR37 Parental, 10μΜ ([4]; IGR37 Parental, 72 h, in %) | other results |
| --- | --- | --- | --- | --- | --- | --- | --- | --- | --- | --- | --- | --- | --- | --- | --- | --- |
| FC(F)(F)c1ccc(/C=C/c2nc(COc3ccc(CCCCn4ccnn4)cc3)co2)cc1 [Mubritinib (TAK 165)] |  |  |  |  |  |  |  |  |  |  |  |  |  |  |  | cell viability, IGR37 GP, 1μΜ [1]: 99.8; cell viability, IGR37 GP, 10μΜ [1]: 95.3; cell viability, A375 Parental, 1μΜ [2]: 94.8; cell viability, A375 Parental, 10μΜ [2]: 91.7; cell viability, 501Mel XP, 1μΜ [3]: 92.8; cell viability, 501Mel XP, 10μΜ [3]: 81.6; cell viability, IGR37 Parental, 1μΜ [4]: 98.7; cell viability, IGR37 Parental, 10μΜ [4]: 100.1; cell viability, 501Mel GP, 10μΜ [5]: 95.8; cell viability, A375 GP, 1μΜ [6]: 93.7; cell viability, A375 GP, 10μΜ [6]: 94.7; cell viability, A375 XP, 1μΜ [7]: 94.9; cell viability, A375 XP, 10μΜ [7]: 98.4; cell viability, IGR37 XP, 1μΜ [8]: 98.3; cell viability, IGR37 XP, 10μΜ [8]: 81.5 |
| Cc1nc(NC(=O)N2CCC[C@H]2C(N)=O)sc1-c1csc(C(C)(C)C)n1 [A66] | 75% | 91.2 | 94.4 | 85.2 | 102.8 | 65.7 | 92.2 | 75.2 | 93.1 | 64.2 | 92.2 | 75.9 | 41.5% | 91.5 |  | Cell viability in kinase inhibitor library screening, A375 Parental, 10μΜ ([2]; A375 Parental, 10μΜ, 72 h): 72.4; Cell viability in kinase inhibitor library screening, A375 Parental, 1μΜ ([2]; A375 Parental, 1μΜ, 72 h): 98.3 |
| COc1ccc2c(Oc3ccc(NC(=O)c4c(C)n(CC(C)(C)O)n(-c5ccccc5)c4=O)nc3)ccnc2c1 [AMG458] |  |  |  |  |  |  |  |  |  |  |  |  |  |  |  | cell viability (kinase inhibitor library screening) ([1]; 1μΜ): 97.0%; cell viability (kinase inhibitor library screening) ([1]; 10μΜ): 88.1%; cell viability (kinase inhibitor library screening) ([2]; A375 Parental, 10μΜ, 72 h): 96.0%; cell viability (kinase inhibitor library screening) ([2]; A375 Parental, 1μΜ, 72 h): 106.7%; cell viability (kinase inhibitor library screening) ([3]; 501Mel XP, 10μΜ, 72 h): 51.7%; cell viability (kinase inhibitor library screening) ([4]; IGR37 Parental, 1μΜ, 72 h): 107.7%; cell viability (kinase inhibitor library screening) ([5]; 1μΜ): 92.9%; cell viability (kinase inhibitor library screening) ([5]; 10μΜ): 70.8%; cell viability (kinase inhibitor library screening) ([6]; 1μΜ): 107.8%; cell viability (kinase inhibitor library screening) ([6]; 10μΜ): 90.9%; cell viability (kinase inhibitor library screening) ([7]; 1μΜ): 106.6%; cell viability (kinase inhibitor library screening) ([7]; 10μΜ): 96.2%; cell viability (kinase inhibitor library screening) ([8]; 1μΜ): 94.8%; cell viability (kinase inhibitor library screening) ([8]; 10μΜ): 55.7% |
| O=C(O)c1ccc2c(c1)nc(Nc1cccc(Cl)c1)c1ccncc12 [cx-4945 (Silmitasertib)] | 55.9% | 94.1 | 96.6 | 52.6 | 88.6 |  | 93.9 | 31.8 | 93.2 |  |  |  | 23.6% | 96.8 | 86.7 |  |
| Cc1ccccc1-n1c(Cn2ncc3c(N)ncnc32)nc2cccc(C)c2c1=O [PIK-293] |  |  |  | 99.9 | 112.1 | 91.5 |  | 90.9 | 97.7 | 99.7 | 106.1 | 104.4 | 77.6% | 103.2 | 107.6 | Cell viability in kinase inhibitor library screening, IGR37 Parental, 1μΜ ([4]; IGR37 Parental, 1μΜ, 72 h, in %): 105.2 |
